In patent US10336752B2, “TYK2 inhibitors, uses, and methods for production thereof” (Nimbus Lakshmi, Inc., priority 2017, dated 2019):
pIC50: −log10 of the molar value. ≈ marks a conversion by molar mass, not a printed value.

Experiments:
[1] = target: TYK2 (Homo sapiens (Human), UniProt P29597); test: 1 mM ATP Tyk2 Caliper Assay; format: biochemical; conditions: ATP 1000 uM
Description: Compounds were serially diluted in DMSO then further diluted in 1x kinase buffer: 5 uL of buffer diluted compound was added into wells first, then 10 uL of Tyk2 enzyme mix was added into wells, followed by 10 uL of substrate mix to start reaction. Reaction was incubated at 28° C. for 25 min and then added 25 uL stop buffer. The reaction mixture was read by a Caliper […]. Final concentrations for assay conditions were: 25 mM HEPES, pH 7.5, 0.01% Brij-35, 0.01% Triton, 0.5 mM EGTA, 2 mM DTT, 10 mM MgCl2, TYK2 4 nM, ATP concentration 1000 uM, and P30 3 uM.

[2] = Kinetic Solubility Determination Assay; format: physicochemical; conditions: aqueous buffer, kinetic from dmso stock, PBS pH 7.4, RT, read-out: Kin. Sol. pH 7.4
Description: Stock solutions of test compounds were prepared in DMSO at the concentration of 10 mM. The stock solutions of positive control compound were prepared in DMSO at the concentration of 30 mM. Progesterone was used as positive control in the assay. 30 μL stock solution of each compound was placed in order into their proper 96-well rack, followed by adding 970 μL of PBS at pH 7.4 into each vial of the cap-less solubility sample plate. This study was performed in duplicate. One stir stick was added to each vial and then vials were sealed using a molded PTDE/SIL 96-Well Plate Cover. The Solubility Sample plate was transferred to the Thermomixer Comfort plate shaker and incubated at RT for 2 hours with shaking at 1100 rpm. After 2 hours incubation, stir sticks were removed using a big magnet and all samples from the Solubility Sample plate were transferred into the filter plate. All the samples were filtered by using the vacuum manifold. The filtered samples were diluted with methanol. Standards of each test compound were prepared at 0.3, 0.09 and 0.1 μM concentrations and both the test samples and standards were analyzed by LC-MS and the test samples were quantified against a standard of known concentration in DMSO using mass spectral peak identification and quantitation.

[3] = CACO-2 Cell Permeability Assay; format: in vitro ADME; conditions: human, Caco-2, pH 7.4, apical to basolateral
Description: Caco-2 cells were diluted to 6.86×10^5 cells/mL with culture medium and 50 μL of cell suspension were dispensed into the filter well of the 96-well HTS Transwell plate. Cells were cultivated for 14˜18 days in a cell culture incubator at 37° C., 5% C02, 95% relative humidity. Cell culture medium was replaced every 2 days, beginning no later than 24 hours after initial plating. 3) After 14˜18 days incubation, the plates were removed from incubator. The inserts were washed twice with pre-warmed HBSS (10 mM HEPES, pH 7.4) and placed into receiver plates. 75 μL and 235 μL of buffer were added to each Transwell inserts and receiver wells, respectively. Then the plates were incubated for 30 min at 37° C. with shaking at 150 rpm. Stock solutions of control compound were prepared in DMSO at 10 mM and then diluted to 1 mM with DMSO followed by further diluting with HBSS (10 mM HEPES, pH 7.4) to get compound working solution. Stock solutions of test compound were prepared in DMSO at 10 mM and then diluted to 1 mM with DMSO followed by further diluting with HBSS (10 mM HEPES, pH 7.4, 4% BSA) to get compound working solution. The final concentration of test compound and control compound was 5 μM. To determine the rate of drug transport in the apical to basolateral direction, 75 μL of compound working solution was added to the filter well (apical compartment) and 235 μL of HBSS (10 mM HEPES, pH 7.4, or 4% BSA) to receiver plate (basolateral compartment). To determine the rate of drug transport in the basolateral to apical direction, 235 μL of compound working solution was added to each well of the receiver plate (basolateral compartment) and 75 μL of HBSS (10 mM HEPES, pH 7.4, or 4% BSA) to filter well (apical compartment). The assay was performed in duplicate. 6) Plates were incubated for 2 hours at 37° C. At the end of the transport period, aliquots of 50 μL were removed directly from the apical and basolateral wells and transferred to wells of new plates. Four volumes of cold Methanol containing internal standards (IS, 100 nM Alprazolam, 200 nM Labetalol and 200 nM Diclofenac) was added into each well. Samples were centrifuged at 3,220 g for 30 minutes. An aliquot of 100 μL of the supernatant mixed with 100 μL of ultra-pure water were used for LC-MS/MS analysis. 7) Solution was discarded from Transwell plates. 100 μL of Lucifer Yellow solution (100 μM in HBSS) and 300 μL of HBSS were added into each well of Transwell insert and receiver, respectively, for leakage determination. Plates were incubated at 37° C. for 30 minutes. 80 μL aliquots from wells of apical and basolateral sides were transferred to solid black plates and the plate was read with Tecan Infinite M 200 (Excitation/Emission wavelength 485 nm/530 nm). The liquid fractions, apical and basolateral layers were analyzed by LC-MS to determine Papp(A-B), Papp(B-A) and recovery.

[4] = Metabolic Clearance Assay in Microsomes (human liver microsomes); format: in vitro ADME; conditions: NADPH and UDPGA, read-out: HLM Clint
Description: A master solution was prepared containing 0.5 mg/mL of either rat or human liver microsomes, 5 mM MgCl2, 100 mM phosphate buffer, and 25 ug/mL alamethacin. 40 μL of 10 mM NADPH solution and 40 μL of 20 mM UDPGA solution were added to each well. The final concentrations of NADPH and UDPGA were 1 mM and 2 mM, respectively. The mixture was pre-warmed at 37° C. for 5 minutes. The negative control samples were prepared by replacing NADPH and UDPGA solutions with 80 μL of ultra-pure H2O. The negative control was used to exclude the misleading factor that resulted from instability of chemical itself. This study was performed in duplicate. The reaction was started with the addition of 2 μL of 400 μM control compound or test compound solutions. Diclofenac was used as positive control in this study. The final concentration of test compound or control compound was 2 μM. Aliquots of 50 μL were taken from the reaction solution at 0, 15, 30, 45 and 60 minutes. The reaction was stopped by the addition of 4 volumes of cold acetonitrile (or methanol) with internal standard (IS) (100 nM alprazolam, 200 nM imipramine, 200 nM labetalol and 2 μM ketoprofen) at the designated time points. Samples were centrifuged at 3,220 g for 40 minutes to precipitate protein. Aliquot of 100 μL supernatant diluted by 100 μL of water was used for LC-MS/MS analysis. The in vitro half-life, scale-up intrinsic clearance, and predicted hepatic clearance were calculated according to standard calculations.

[5] = Solid form stability of Compound 1 mesylate forms; format: physicochemical; conditions: for solid form stability at ambient conditions: drying / ambient conditions
[6] = Pharmacokinetic Study in Dogs; format: in vivo; conditions: male, Beagle; dog, oral gavage 10 mg/kg, 20% HPβCD aq., plasma
Description: Male Beagle dogs (9-14 kg; 2.5 to 5.5 years of age) housed one per cage under standard laboratory conditions were fasted for approximately 16 to 17 hours prior to dosing with food returned approximately 2 hours after dosing. […] Blood samples were collected from the jugular vein (˜1.5 mL) by venipuncture, and stored in tubes treated with K2EDTA, then centrifuged (3000 g, 4° C., 5 min). The plasma samples were transferred and stored at −70° C. until analysis. Bioanalysis: Concentrations for experimental samples and plasma calibration standards were determined by LC/MS/MS (API-5500, reverse-phase chromatography, APCI) following extraction by plasma precipitation with cold acetonitrile (4:1 ACN/plasma by volume) containing verapamil as an internal standard. PK Analysis: The individual animal plasma concentration-time data was analyzed by noncompartmental analysis (linear trapazoidal fitting) using PK Solver software (v2.0).

[7] = Dissolution Assay in Fasted Simulated Gastric Fluid; format: physicochemical; conditions: 37° C., 50 rpm, compressed disc
Description: The dissolution bath was filled with 900 mL of media for testing, the bath temperature held at 37° C., the rotation rate of the apparatus was 50 rpm, the draw point for the sampling probe was set exactly halfway between the surface of the media and the surface of the disc. The test article (0.4 g) was compressed into a disc using a Woods apparatus. The sampling time points were 10, 30, 60, 90, 120, 150 & 180. The samples were analysed by HPLC for concentration against a sample preparation of known concentration (ca. 0.5 mg/ml). Dissolution rate was derived from the curve of concentration against time.

Chain of TYK2 (P29597 whole entry): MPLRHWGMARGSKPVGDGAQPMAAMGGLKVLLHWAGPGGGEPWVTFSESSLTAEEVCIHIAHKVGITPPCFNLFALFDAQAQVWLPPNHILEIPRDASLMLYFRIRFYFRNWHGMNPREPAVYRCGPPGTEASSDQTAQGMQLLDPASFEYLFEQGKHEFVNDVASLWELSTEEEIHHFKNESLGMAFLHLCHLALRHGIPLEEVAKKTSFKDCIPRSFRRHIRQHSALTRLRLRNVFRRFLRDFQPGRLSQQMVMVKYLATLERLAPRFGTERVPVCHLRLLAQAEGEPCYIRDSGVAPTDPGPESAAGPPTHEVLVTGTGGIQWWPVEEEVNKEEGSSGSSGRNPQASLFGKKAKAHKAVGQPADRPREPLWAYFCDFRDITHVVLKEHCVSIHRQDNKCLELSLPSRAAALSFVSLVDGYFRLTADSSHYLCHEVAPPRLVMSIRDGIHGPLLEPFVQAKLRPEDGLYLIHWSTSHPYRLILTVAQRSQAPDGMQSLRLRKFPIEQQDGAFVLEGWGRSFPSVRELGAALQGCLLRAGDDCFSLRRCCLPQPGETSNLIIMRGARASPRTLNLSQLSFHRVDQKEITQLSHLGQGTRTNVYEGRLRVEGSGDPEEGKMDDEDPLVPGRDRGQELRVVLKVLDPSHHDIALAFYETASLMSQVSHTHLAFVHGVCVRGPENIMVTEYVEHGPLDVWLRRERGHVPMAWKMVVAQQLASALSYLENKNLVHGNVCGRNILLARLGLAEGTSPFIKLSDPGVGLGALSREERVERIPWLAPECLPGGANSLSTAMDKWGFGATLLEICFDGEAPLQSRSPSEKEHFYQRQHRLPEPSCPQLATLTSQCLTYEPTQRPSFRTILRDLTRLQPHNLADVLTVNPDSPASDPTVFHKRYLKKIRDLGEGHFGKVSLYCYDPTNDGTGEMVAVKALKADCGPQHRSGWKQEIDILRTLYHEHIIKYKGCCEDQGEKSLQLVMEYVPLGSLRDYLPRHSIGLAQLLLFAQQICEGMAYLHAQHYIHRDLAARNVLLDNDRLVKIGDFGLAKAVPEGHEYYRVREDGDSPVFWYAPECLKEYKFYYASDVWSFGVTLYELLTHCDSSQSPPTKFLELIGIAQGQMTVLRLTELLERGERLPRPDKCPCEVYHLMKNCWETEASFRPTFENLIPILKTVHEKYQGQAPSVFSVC

Work on `O=C1NCc2nc(-c3c(F)cccc3F)cc(Nc3ccc(C(=O)N4C[C@H]5COC[C@H]5C4)cc3)c21` [Compound 17] yielded a pIC50 [1] of 7.05, a solubility kinetic at 2 h [2] of 205 µM (≈ 97.5 µg/mL) and a Papp A→B at 2 h, 5 μM [3] of 1.52 ×10⁻⁶ cm/s.
`O=C1NCc2nc(-c3c(F)cccc3F)cc(Nc3ccc(C(=O)N4CCOCC4)nc3)c21` [Compound 13] gave a solubility kinetic at 2 h [2] of 252 µM (≈ 114 µg/mL), a Papp A→B at 2 h, 5 μM [3] of 2.89 ×10⁻⁶ cm/s and a CLint scaled at 2 μM [4] of 1.9 mL/min/kg.
For `CC1(O)CCN(C(=O)c2ccc(Nc3cc(-c4c(F)cccc4F)nc4c3C(=O)NC4)cc2)CC1` [Compound 12], the pIC50 [1] was 6.87, the solubility kinetic at 2 h [2] was 237 µM (≈ 113 µg/mL) and the Papp A→B at 2 h, 5 μM [3] was 0.41 ×10⁻⁶ cm/s.
In the case of `O=C1NCc2nc(-c3c(F)cccc3F)cc(Nc3ccc(N4CCCC4)cn3)c21` [Compound 7], the pIC50 [1] was 6.41, the solubility kinetic at 2 h [2] was < 0.5 µM and the Papp A→B at 2 h, 5 μM [3] was 13.5 ×10⁻⁶ cm/s. The CLint scaled at 2 μM [4] was 10.9 mL/min/kg.
`CCN(CC)C(=O)c1ccc(Nc2cc(-c3c(F)cccc3F)nc3c2C(=O)NC3)cc1` [Compound 11] gave a pIC50 [1] of 6.92, a solubility kinetic at 2 h [2] of 1.86 µM (≈ 0.812 µg/mL) and a Papp A→B at 2 h, 5 μM [3] of 5.62 ×10⁻⁶ cm/s.
Molecule `N#Cc1cccc(F)c1-c1cc(Nc2ccc(C(=O)N3CCCC3)cc2)c2c(n1)CNC2=O` [Compound 16] has a pIC50 [1] of 7.75, a solubility kinetic at 2 h [2] of 32.9 µM (≈ 14.5 µg/mL) and a Papp A→B at 2 h, 5 μM [3] of 2.63 ×10⁻⁶ cm/s.
With `N#Cc1cccc(F)c1-c1cc(Nc2ccc(C(=O)N3CCOCC3)cc2)c2c(n1)CNC2=O` [Compound 14] the pIC50 [1] was 7.62, the solubility kinetic at 2 h [2] was 271 µM (≈ 124 µg/mL) and the Papp A→B at 2 h, 5 μM [3] was 2.08 ×10⁻⁶ cm/s.
For `CS(=O)(=O)O.O=C1NCc2nc(-c3c(F)cccc3F)cc(Nc3ccc(C(=O)N4CCCC4)cc3)c21` [Form III of Compound 1 mesylate], the “solid form stability at ambient conditions” value [5] was “transition to Form IV”.
Molecule `O=C1NCc2nc(-c3c(F)cccc3F)cc(Nc3ccc(C(=O)N4CCOCC4)cc3)c21` [Compound 9] has a pIC50 [1] of 6.87, an AUC(0-t) [6] of 10200 ng·h/mL and a Cmax [6] of 1070 ng/mL. The solubility kinetic at 2 h [2] was 172 µM (≈ 77.3 µg/mL), the “dissolution rate in Fasted Simulated Gastric Fluid (FaSSGF)” value [7] was 21.2 μg/cm^2/min and the Papp A→B at 2 h, 5 μM [3] was 3.43 ×10⁻⁶ cm/s. It also gave a CLint scaled at 2 μM [4] of 3 mL/min/kg.
In the case of `CS(=O)(=O)O.O=C1NCc2nc(-c3c(F)cccc3F)cc(Nc3ccc(C(=O)N4CCCC4)cc3)c21` [Form V of Compound 1 mesylate], the “solid form stability upon grinding” value ([5]; grinding) was “transition to Form I”.
Molecule `O=C1NCc2nc(-c3c(F)cccc3F)cc(Nc3ccc(C(=O)N4CCCC4)cc3)c21` [Compound 1] has an AUC(0-t) [6] of 18700 ng·h/mL, a Cmax [6] of 2100 ng/mL and a solubility kinetic at 2 h [2] of 274 µM (≈ 119 µg/mL). The “dissolution rate in Fasted Simulated Gastric Fluid (FaSSGF)” value [7] was 57.5 μg/cm^2/min, the Papp A→B at 2 h, 5 μM [3] was 5.77 ×10⁻⁶ cm/s and the CLint scaled at 2 μM [4] was 0.62 mL/min/kg.
With `CS(=O)(=O)O.O=C1NCc2nc(-c3c(F)cccc3F)cc(Nc3ccc(C(=O)N4CCCC4)cc3)c21` [Form IV of Compound 1 mesylate] the “solid form stability at ambient conditions” value [5] was “stable”.
In the case of `O=C1NCc2nc(-c3c(F)cccc3F)cc(Nc3ccc(C(=O)N4CCCCC4)cc3)c21` [Compound 10], the pIC50 [1] was 7.05, the solubility kinetic at 2 h [2] was 1.45 µM (≈ 0.65 µg/mL) and the Papp A→B at 2 h, 5 μM [3] was 4.03 ×10⁻⁶ cm/s. It also gave a CLint scaled at 2 μM [4] of 7.81 mL/min/kg.
For `O=C1NCc2nc(-c3c(F)cccc3F)cc(Nc3ccc(N4CCOCC4)cn3)c21` [Compound 8], the pIC50 [1] was 7.48, the solubility kinetic at 2 h [2] was 11.9 µM (≈ 5.05 µg/mL) and the Papp A→B at 2 h, 5 μM [3] was 13.1 ×10⁻⁶ cm/s. The CLint scaled at 2 μM [4] was 1.2 mL/min/kg.
Work on `O=C1NCc2nc(-c3c(F)cccc3F)cc(Nc3ccc(C(=O)N4CCC4)cc3)c21` [Compound 15] yielded a pIC50 [1] of 7.13, a solubility kinetic at 2 h [2] of 3.75 µM (≈ 1.58 µg/mL) and a Papp A→B at 2 h, 5 μM [3] of 7.59 ×10⁻⁶ cm/s. For the same molecule, the CLint scaled at 2 μM [4] was 1.78 mL/min/kg.
